Measurements: publication PMC12951551, “Do Amino-Oxetanes Resemble Amides? A Matched Molecular Pairs Property and Structural Comparison” (Journal of Medicinal Chemistry, 2026)
≈ marks a conversion by molar mass, not a printed value.

Experiments:
human hepatocytes = experiment: Human Hepatocyte (HHEP) stability assay, clearance; format: in vitro ADME; settings: human hepatocytes, 0.5 million cells/mL, 1 µM test compound
Protocol: Human Hepatocyte (HHEP) assay: The high throughput HHEP stability assay was performed in a 384-well format (Greiner Bio-One, Monroe, NC). The cryopreserved HHEP were thawed, and re-suspended in Williams E medium (WEM, custom formula number 91-5233EC; Invitrogen, Grand Island, NY) supplemented with HEPES and Na2CO3. The cells were counted using the Trypan Blue exclusion method. A multidrop liquid dispenser (Multidrop DW, Thermo Scientific, Waltham, MA) was used to add the HHEP suspensions to the 384-well plates. The cell plates were covered and transferred to a Cytomat 2 incubator (ThermoFisher) and Biomek i7 (Beckman Coulter, Indianapolis, IN), equipped with three 3position MéCour heat exchangers. Test compounds were diluted on the Biomek i7 with buffer (15 µL) and added to the HHEP (30 µL). The final incubation contained 0.5 million cells/mL and 1 µM test compound in 45 µL total volume containing 0.01% DMSO. The incubation was carried out at 37 °C in the Cytomat 2 incubator (relative humidity ≥ 90%, 5% CO2/95% air). At various time points (2, 4, 11, 45, 75, 120, and 240 min), the plate was pulled out from the incubator by the Biomek i7 robot and put on the MéCour heated exchanger. Samples (3 µL) were transferred to a 384-well plate containing 30 µL acetonitrile with an internal standard (IS) to quench the reaction. Water (60 µL) was added to the quenched plate to dilute the organic solvent content for LC-MS/MS analysis. The plates were centrifuged at 3000 rpm for 10 min at 4 °C, sealed and subsequently analyzed using LC-MS/MS without further transfer of the supernatant.
Propranolol (CYP2D6), midazolam (CYP3A) and triazolam (CYP3A, low clearance), naloxone (UGT2B7), carbazeran (AO), and verapamil (CYP3A, CYP2C8) were used as positive controls. For CYP inhibition study, 1 mM ABT (a pan-cYP inhibitor) was pre-incubated with HHEP for 30 minutes at 37 °C before adding test compounds. Values are n >3 unless […]
(§1) Permeability assay (RRCK): Ralph Russ canine kidney cells were used for permeability measurements using a cell monolayer in 96-transwell format. The detailed assay conditions have been reported previously.9 Test compounds were added to the donor wells and a buffer was added to the receiver wells to start the apical to basolateral transport assay.
(§2) Time 0 and 1.5 h incubation samples were taken for LC-MS/MS analysis. Apparent permeability (Papp) was calculated using the equation below (1), where Area is the surface area of the cell monolayer (0.0625 cm2), CD(0) is the […]

[1] = Permeability assay (RRCK); format: in vitro ADME, canine; settings: dog, MDCK, apical to basolateral, average of 2 runs, footnote b = only one replicate
[2] = Experimental pKaH (amine basicity); format: physicochemical; settings: for pKa: Table S2
Description: The influence of basicity is an ongoing rationale for inclusion of the oxetanes in drug candidates, providing the potential to attenuate off-target effects including hERG channel inhibition. […] As comparison against the benzamide analogue is not possible, we instead looked at the head-to-head comparison between amino-oxetane 4a and benzylamine 18 (Figure ).

[3] = Shake flask LogD (SFLogD) assay; format: physicochemical; settings: for logD: pH = 7.4, octanol/water shake flask, average of 2 runs unless otherwise stated
Protocol: as §1, §2

Kinetic solubility = format: physicochemical; settings: for solubility at 24 h: aqueous pH buffer, aqueous buffer, kinetic from dmso stock, 37 °C, 600 µM start
Protocol: (§3) Aqueous buffer preparation: pH 3: 50 µL of 1N hydrochloric acid was added to 500 mL of deionized water. The solution was titrated with 1N hydrochloric acid to pH 3, and back titrated with 1N sodium hydroxide. pH 7.4: 100 mM sodium phosphate buffer is made by adding 56.4 g of dibasic sodium phosphate and 10.3 g of monobasic sodium phosphate to 4 L of deionized water. 250 µL of 100 mM sodium phosphate buffer was diluted with 250 µL of deionized water. The solution was titrated with 1N hydrochloric acid to pH 7.4, and back titrated with 1N sodium hydroxide. pH 10: Fisher Scientific pH 10 buffer (SB116-500) containing potassium hydroxide, potassium carbonate, and potassium […]
pH 12.8: 30 mL of 1N NaOH was added to 200 mL of deionized water. The solution was titrated with 1N sodium hydroxide to pH 12.8 and back titrated with 1N hydrochloric acid.
Kinetic solubility: Samples were diluted to 600 µM in the appropriate pH buffer (pH: 3, 7.4, 10) and to 600 µM (assumed 100% solubility) in a DMSO standard. Samples were mixed thoroughly and incubated at 37 °C for 24 h.
Following incubation, pH samples were transferred to a […] PVDF (low binding) and filtered to remove any precipitate. The filtrate was collected and analyzed via MS/MS. The ratio of MS response (DMSO:pH) is taken and multiplied by the initial 600 µM concentration to determine the concentration (solubility) of the samples in pH buffers. […]
as §1, §2

[4] = Chemical (pH) stability assay; format: physicochemical; settings: 24 h under acidic, neutral, and basic conditions
Protocol: Chemical stability assay: The chemical stability assay was performed in 384 well plate format (volume = […]).
Plates were prefilled with 70 µL of the appropriate buffer (pH 1.2, 7.4, 10) after which the wells were spiked with 5 µL of test compounds (1 mM). Samples were incubated for their timepoint of interest (1 h, 4 h, 24 h) at 37 °C after which the samples were diluted in MeCN (and pH 12.8 buffer for experiment at pH 1.2), mixed with an internal standard and […]
as §3, §2

SMILES	HHEPG clearance (human hepatocytes)	Papp at 1.5 h [1]	pKa [2]	Change in SFlogD of the carbonyl-to-oxetane replacement ([3]; pH 7.4, amino-oxetane versus matched benzamide)	logD [3]	Kinetic solubility, in words (Kinetic solubility; across acidic, neutral, and basic conditions, compared with benzamide counterpart)	solubility at 24 h (Kinetic solubility; pH 3)	solubility at 24 h (Kinetic solubility; pH 7.4)	solubility at 24 h (Kinetic solubility; pH 10)	pKaH ([2]; text and Figure 6)	pH stability, in words [4]	Kinetic solubility, in words (Kinetic solubility; pH 3)
O=S(=O)(c1ccccc1)c1ccc(C2(N3CCOCC3)COC2)cc1 [10a, 4-(3-(4-(Phenylsulfonyl)Phenyl)Oxetan-3-yl)Morpholine]	4 μL min^−1 million^−1	36.7 ×10⁻⁶ cm/s	3.08	+0.44	1.55							
COc1ccc(C2(N3CCOCC3)COC2)cc1 [4a, 4-(3-(4-Methoxyphenyl)Oxetan-3-yl)Morpholine]	4 μL min^−1 million^−1	39.2 ×10⁻⁶ cm/s	4.61		1.17	solubility comparable to their analogous benzamides	486 µM (≈ 121 µg/mL)	556 µM (≈ 139 µg/mL)	492 µM (≈ 123 µg/mL)	4.61		
COc1ccc(C2(NCC34C[C@H]5C[C@@H](C3)C[C@@H](C4)C5)COC2)cc1 [1a, N-(((3R,5R,7R)-Adamantan-1-yl)Methyl)-3-(4-Methoxyphenyl)Oxetan-3-Amine]		25.8 ×10⁻⁶ cm/s			3.6		533 µM (≈ 175 µg/mL)	< 8.9 µM	< 0.3 µM		reduced stability under neutral and basic conditions	markedly improved solubility
COc1ccc(CNCc2ccccc2)cc1 [S1]			8.81									
